The test concerns Radical scavenging activity. Briefly: Antioxidant activity assessed as DPPH free radical scavenging activity. It is filed as functional. (The DPPH test is a chemical assay of radical scavenging.)

The record followed here is ChEMBL document CHEMBL1821647, “Synthesis and antioxygenic activities of seabuckthorn flavone-3-ols and analogs” (Bioorg Med Chem Lett, 2011).

Turning to `COc1ccc(-c2oc3cc(O)cc(O)c3c(=O)c2O)cc1O` [TAMARIXETIN], the EC50 was more than 100 µg. In the case of `COc1cc(C2Oc3cc(O)cc(O)c3C(=O)C2O)ccc1O` (centres undefined) [DIHYDROISORHAMNETIN] it was more than 100 µg; in that of `Cc1c(C)c2c(c(C)c1O)CCC(C)(C(=O)O)O2` (centres undefined) [TROLOX], 12.5 µg; in that of `COc1cc(-c2oc3cc(O)cc(O)c3c(=O)c2O)ccc1O` [ISORHAMNETIN], 26.2 µg. Regarding `O=c1c(O)c(-c2ccc(O)c(O)c2)oc2c(O)c(O)cc(O)c12` [GOSSYPETIN], the EC50 was 5.5 µg. Take `COc1ccc(C2Oc3cc(O)cc(O)c3C(=O)C2O)cc1` (centres undefined) [DIHYDROKAEMPFERIDE]: the EC50 is more than 100 µg. With `O=C(O)c1cc(O)c(O)c(O)c1` [GALLIC ACID], the EC50 is 3.8 µg.

In the case of `O=C1c2c(O)cc(O)cc2O[C@H](c2ccc(O)cc2)[C@H]1O` [DIHYDROKAEMPFEROL], the EC50 was more than 100 µg.

In the case of `COc1ccc(C2Oc3cc(O)cc(O)c3C(=O)C2O)cc1O` (centres undefined) [TAMARAXETIN], the EC50 is more than 100 µg. Take `O=c1c(O)c(-c2ccc(O)c(O)c2)oc2cc(O)c(O)c(O)c12` [QUERCETAGETIN]: the EC50 worked out at 10.5 µg. For the compound `O=c1c(O)c(-c2ccc(O)c(O)c2)oc2cc(O)cc(O)c12` [QUERCETIN], the EC50 was found to be 14.4 µg. For the compound `O=C1c2c(O)cc(O)cc2O[C@H](c2ccc(O)c(O)c2)[C@H]1O` [(+)-TAXIFOLIN], the EC50 stood at 24 µg.

In the case of `O=c1oc2c(O)c(O)cc3c(=O)oc4c(O)c(O)cc1c4c23` [ELLAGIC ACID], the EC50 came to 4.8 µg. For the compound `O=c1c(O)c(-c2ccc(O)c(O)c2)oc2c(O[C@@H]3O[C@H](CO)[C@@H](O)[C@H](O)[C@H]3O)c(O)cc(O)c12`, the EC50 came out at 25.5 µg. In the case of `COc1c(O)cc2oc(-c3ccc(O)c(O)c3)c(O)c(=O)c2c1O` [PATULETIN] it was 10.6 µg; in that of `C[C@@H]1O[C@@H](OC[C@H]2O[C@@H](Oc3c(-c4ccc(O)c(O)c4)oc4cc(O)cc(O)c4c3=O)[C@H](O)[C@@H](O)[C@@H]2O)[C@H](O)[C@H](O)[C@H]1O` [RUTIN], 15.5 µg.

`O=c1c(O)c(-c2ccc(O)cc2)oc2cc(O)cc(O)c12` [KAEMPFEROL]: the EC50 turned out to be 14.6 µg. Regarding `COc1ccc(-c2oc3cc(O)cc(O)c3c(=O)c2O)cc1` [KAEMPFERIDE], the EC50 stood at 97 µg. `O=C(O)[C@H]1O[C@@H](Oc2c(O)cc(O)c3c(=O)c(O)c(-c4ccc(O)c(O)c4)oc23)[C@H](O)[C@@H](O)[C@@H]1O` [HIBIFOLIN]: the EC50 worked out at 16 µg.
